From patent publication US4780238A (priority 1985, dated 1988)

Tested on: P. aeruginosa
Format: cell-based, Pseudomonas aeruginosa

Structure (SMILES)	lag period of the organism	inhibitory effect on growth
O=[N+]([O-])[O-].O=[N+]([O-])[O-].O=[N+]([O-])[O-].O=[N+]([O-])[O-].[Th+4] [Th(NO3)4, thorium nitrate]	the lag period of the organism also increased	
O=[N+]([O-])[O-].O=[N+]([O-])[O-].[O]=[U+2]=[O] [uranyl nitrate]		stronger inhibitory effect on growth of the organism than thorium
